Measurements taken from patent US20250065017A1, “Fractionating Extracellular Matrix to Modulate Bioactivity and the Host Response” (University of Pittsburgh - Of the Commonwealth System of …, priority 2014, published 2025).

Tests used:
Sprague Dawley rats = assay: Rat skeletal muscle injury model: macrophage phenotype immunolabeling; format: in vivo
Method: An established rodent skeletal muscle injury model was used to evaluate the effect of the COX1/2 inhibitor, Aspirin, on the ECM scaffold mediated constructive remodeling response. Briefly, three days prior to the surgical procedure, animals were randomly assigned to either the Aspirin treated (3 mg/mL Aspirin in drinking water) or control (vehicle) group. Bilateral 1.5 cm×1.5 cm partial thickness defects were created in the abdominal musculature. A size-matched pre-cast UBM hydrogel and an overlying 2×2 cm single layer sheet of UBM was then placed in the muscle defect area. The remodeling response was evaluated following 3, 7, 14, and 35 days by quantitative histomorphologic metrics (Wolf M T, Carruthers […], Crapo P M, Huber A, Burnsed O A, Londono R, Johnson […] and others. Polypropylene surgical mesh coated with extracellular matrix mitigates the host foreign body response. J Biomed Mater Res A 2013 and Wolf […], Brennan-Pierce E P, Johnson S A, Carruthers […] hydrogel derived from decellularized dermal extracellular matrix. Biomaterials 2012;33(29):7028-38), including characterization of macrophage phenotype and neo tissue deposition. Thirty-two female Sprague Dawley rats (350-400 g at implantation) were purchased from Harlan Laboratories. Rats were housed on a 12 hour light-dark cycle and fed standard laboratory chow and water ad libitum. Animals were randomly assigned to either the Aspirin treated or control (vehicle) group. Three days prior to surgery, animals in the Aspirin group had their drinking water supplemented with 3 mg/mL Aspirin which was continued throughout the experimental time course. […] Salicylates in whole blood were determined using the Salicylates Detection Kit from Neogen according to the manufacturer's instructions. […] CD206 and CD86: Cellular expression of markers of macrophage polarization (CD206 and CD86) were determined by immunolabeling using previously described methods ([…], Londono […], Carruthers […]. Preparation and characterization of a biologic scaffold from esophageal mucosa. Biomaterials 2013;34(28):6729-37). […]

[1] = tested on: THP1 macrophage-like cells; assay: COX2 expression by western blot; format: cell-based, human; conditions: Aspirin 200 μM with UBM hydrogel 0.5 mg/mL; 4, 8, 24 hours
Method: THP-1 human monocytes were obtained from the American Tissue Culture Collection (ATCC, Manassas, VA) and maintained in RPMI, 10% FBS, 1% penicillin/streptomycin, 2 mM L-glutamine, and 1 mM sodium pyruvate in a humidified atmosphere at 37° C. with 5% CO2. For experiments, 500,000 THP-1 cells/mL were plated with 320 nM phorbol 12-myristate 13-acetate (PMA) for 24 hours to induce differentiation into macrophages. Adherent macrophages were washed in PBS and placed in fresh media, followed by a 24 hour incubation to acquiesce.
Cells were then treated with UBM hydrogel for 4, 8, or 24 hours. At the specified time points, cells were washed extensively with 1× PBS and lysis buffer (50 mM Tris, 20 mM NaCl, 1% Triton X-100) was added. Cells were mechanically removed from the culture dish, transferred to centrifuge tubes and incubated on ice for 10 minutes. Lysates were spun down at 14000 rpm for 20 minutes at 4° C. to remove any debris. The clarified lysate was stored at −80° C. Lysates were diluted 1:1 in 2× Laemmli Sample Buffer (Bio-Rad, Hercules, CA) and boiled at 95° C. for 5 minutes. Samples were then resolved on 9% SDS-PAGE gels (National Diagnostics) and transferred to polyvinyldifluoride (PVDF, Millipore) membranes. Membranes were blocked with 1:1 Odyssey Blocking Buffer:1×PBS (Licor) overnight at 4° C. […]

C2C12 murine myoblasts = assay: In vitro myogenesis, THP1/C2C12 transwell co-culture; format: cell-based
Method: C2C12 murine myoblasts were obtained from ATCC and grown in complete media (DMEM, 10% FBS, 1% penicillin/streptomycin) at 37° C./5% CO2 according to the ATCC recommendations. Myoblasts were seeded at a density of 5,000 cells/cm^2 in 24 well plates and allowed proliferate to 90% confluence. Cells were then washed in 1×PBS and incubated in differentiation media (DMEM, 2% horse Serum, 1% penicillin/streptomycin) for 24 hours. Cells were washed in 1×PBS and placed in basal media (DMEM, 1% penicillin/streptomycin). A transwell insert (Corning) containing 100,000 differentiated THP1 cells (as described in section 2.9) in 200 μL of complete THP1 cell media was placed in each well. UBM hydrogel (0.5 mg/mL, final concentration) was then added to the THP1 transwell insert only. […] A standardized image capture system and quantitative analysis of in vitro myogenesis was performed as previously described (Goh […], Corbett J T, Pierre […], Pizza F X. Intercellular adhesion molecule-1 expression by skeletal muscle Cells Augments myogenesis. Exp Cell Res 2014). Briefly, custom macro functions (Image […]; Media Cybernetics Inc.) were used to objectively quantify several important myogenesis parameters (e.g., the number of nuclei, myotubes, and nuclei within a myotube). […] The fusion index was calculated by expressing the number of nuclei within myotubes as a percentage of total nuclei.

[2] = vs non-Aspirin treated animals throughout the time course

In the case of CC(=O)Oc1ccccc1C(=O)O [Aspirin], the “M2:M1 ratio (CD68+CD206+ to CD68+CD86+ cells)” value (Sprague Dawley rats; main effect for treatment, UBM implant) is reported as “reduction in the M2:M1 ratio”, the “M1 (CD86+) macrophages” value (Sprague Dawley rats; [2]) is reported as “increase in M1 (CD86+) macrophages” and the “M2 (CD206+) macrophages” value (Sprague Dawley rats; [2]) is reported as “reduction in M2 (CD206+)”. For the same compound, the “change in COX2 expression” value [1] was “did not cause any changes in COX2 expression”, the myogenesis metrics (C2C12 murine myoblasts; Aspirin 200 μM co-administered with UBM 0.5 mg/mL, 48 hours) was “reduced these myogenesis metrics down to control levels” and the “reduction in fusion index” value (C2C12 murine myoblasts; Aspirin with UBM, THP1/C2C12 co culture) was 92%.
